Results taken from PubChem BioAssay (NCI).
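Five compound concentrations were applied to cells in 96-well plates for 48 hours; endpoints were derived by simple linear interpolation of the resulting dose-response curve. GI50 = concentration required for 50% inhibition of growth. Definition used: TGI = concentration required for complete inhibition of growth.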

What was measured:
Assay in all cases: growth of human tumour cells (NCI), 48 h
[1] = test system: K-562 leukemia
[2] = test system: HOP-62 NSCLC
[3] = test system: IGROV1 ovarian
[4] = test system: NCI-H23 lung
[5] = test system: NCI-H460 lung
[6] = test system: HL-60(TB) leukemia
[7] = test system: OVCAR-5 ovarian
[8] = test system: SNB-19 CNS
[9] = test system: SF-295 CNS
[10] = test system: HCC-2998 colon
[11] = test system: RXF 393 renal
[12] = test system: T-47D breast
[13] = test system: MDA-MB-231 breast
[14] = test system: EKVX NSCLC
[15] = test system: SNB-75 CNS
[16] = test system: TK-10 renal
[17] = test system: UO-31 renal
[18] = test system: NCI-H226 lung
[19] = test system: HT29 colon
[20] = test system: SR leukemia
[21] = test system: MOLT-4 leukemia
[22] = test system: U251 CNS
[23] = test system: SW-620 colon
[24] = test system: RPMI-8226 leukemia
[25] = test system: HCT-15 colon
[26] = test system: SF-268 CNS
[27] = test system: SF-539 CNS
[28] = test system: MDA-MB-435
[29] = test system: COLO 205 colon
[30] = test system: SK-MEL-2 melanoma
[31] = test system: SK-OV-3 ovarian
[32] = test system: HOP-92 NSCLC
[33] = test system: SK-MEL-5 melanoma
[34] = test system: MALME-3M melanoma
[35] = test system: HS 578T breast
[36] = test system: SN12C renal
[37] = test system: MCF7 breast
[38] = test system: OVCAR-4 ovarian
[39] = test system: KM12 colon
[40] = test system: DU-145 prostate
[41] = test system: CCRF-CEM leukemia
[42] = test system: BT-549 breast
[43] = test system: A498 renal
[44] = test system: 786-0 renal
[45] = test system: CAKI-1 renal
[46] = test system: A549 NSCLC
[47] = test system: HCT-116 colon
[48] = test system: M14 melanoma
[49] = test system: NCI/ADR-RES ovarian
[50] = test system: PC-3 prostate
[51] = test system: UACC-257 melanoma
[52] = test system: LOX IMVI melanoma
[53] = test system: SK-MEL-28 melanoma
[54] = test system: OVCAR-8 ovarian
[55] = test system: ACHN renal
[56] = test system: OVCAR-3 ovarian
[57] = test system: UACC-62 melanoma
[58] = test system: NCI-H522 lung
[59] = test system: MDA-N

Nc1ncnc2c1c(-c1ccc(Oc3ccccc3)cc1)nn2C[C@@H]1SSC[C@@H]1O
GI50 [1]: 0.295 µM
TGI [1]: 3.21 µM
GI50 [2]: 0.202 µM
TGI [2]: 1.24 µM
GI50 [3]: 0.839 µM
TGI [3]: 3.26 µM
GI50 [4]: 0.333 µM
TGI [4]: 7.93 µM
GI50 [5]: 0.0286 µM
TGI [5]: 0.0807 µM
GI50 [6]: 0.576 µM
TGI [6]: 7.89 µM
GI50 [7]: 2.16 µM
TGI [7]: 26.2 µM
GI50 [8]: 1.03 µM
TGI [8]: 14 µM
GI50 [9]: 1.47 µM
TGI [9]: 5.49 µM
GI50 [10]: 0.479 µM
TGI [10]: 14.8 µM
GI50 [11]: 1.46 µM
TGI [11]: 5.6 µM
GI50 [12]: 0.305 µM
TGI [12]: 2.27 µM
GI50 [13]: 1.14 µM
TGI [13]: 4.13 µM
GI50 [14]: 0.373 µM
TGI [14]: 5.84 µM
GI50 [15]: 1.78 µM
TGI [15]: 7.56 µM
GI50 [16]: 0.705 µM
TGI [16]: 2.75 µM
GI50 [17]: 1.54 µM
TGI [17]: 5.63 µM
GI50 [18]: 1.59 µM
TGI [18]: 3.92 µM
GI50 [19]: 0.334 µM
TGI [19]: 1.7 µM
GI50 [20]: 0.0385 µM
TGI [20]: 0.27 µM
GI50 [21]: 0.0304 µM
TGI [21]: 0.119 µM
GI50 [22]: 0.853 µM
TGI [22]: 8.71 µM
GI50 [23]: 0.432 µM
TGI [23]: > 84 µM
GI50 [24]: 2.86 µM
TGI [24]: 14.6 µM
GI50 [25]: 0.57 µM
TGI [25]: 5.98 µM
GI50 [26]: 0.0375 µM
TGI [26]: 0.53 µM
GI50 [27]: 1.63 µM
TGI [27]: 26.3 µM
GI50 [28]: 0.101 µM
TGI [28]: 0.256 µM
GI50 [29]: 1.58 µM
TGI [29]: 4.7 µM
GI50 [30]: 0.212 µM
TGI [30]: 0.502 µM
GI50 [31]: 0.498 µM
TGI [31]: 3.71 µM
GI50 [32]: 1.62 µM
TGI [32]: 6.04 µM
GI50 [33]: 0.25 µM
TGI [33]: 0.684 µM
GI50 [34]: 0.445 µM
TGI [34]: 2.24 µM
GI50 [35]: 2.02 µM
TGI [35]: 11.6 µM
GI50 [36]: 0.762 µM
TGI [36]: 11 µM
GI50 [37]: 0.129 µM
TGI [37]: 1.31 µM
GI50 [38]: 1.33 µM
TGI [38]: 14 µM
GI50 [39]: 0.18 µM
TGI [39]: 12.1 µM
GI50 [40]: 1.36 µM
TGI [40]: 4.02 µM
GI50 [41]: 0.061 µM
TGI [41]: > 59.7 µM
GI50 [42]: 3.53 µM
TGI [42]: 13.4 µM
GI50 [43]: 2.01 µM
TGI [43]: 5.35 µM
GI50 [44]: 2.75 µM
TGI [44]: 11.1 µM
GI50 [45]: 1.36 µM
TGI [45]: 5.01 µM
GI50 [46]: 0.479 µM
TGI [46]: 2.57 µM
GI50 [47]: 0.101 µM
TGI [47]: 1.64 µM
GI50 [48]: 0.0212 µM
TGI [48]: 0.0462 µM
GI50 [49]: 1.05 µM
TGI [49]: 7.8 µM
GI50 [50]: 1.72 µM
TGI [50]: 10.1 µM
GI50 [51]: 0.374 µM
TGI [51]: 11.9 µM
GI50 [52]: 0.169 µM
TGI [52]: 1.11 µM
GI50 [53]: 0.0824 µM
TGI [53]: 0.484 µM
GI50 [54]: 0.36 µM
TGI [54]: 12.2 µM
GI50 [55]: 0.398 µM
TGI [55]: 7.01 µM
GI50 [56]: 0.277 µM
TGI [56]: 1.04 µM
GI50 [57]: 0.193 µM
TGI [57]: 0.411 µM
GI50 [58]: 2.15 µM
TGI [58]: 6.98 µM

COC(=O)/C=C/c1ccc2c(c1)CC1(Cc3ccccc3C1)C2
TGI [1]: > 100 µM
TGI [2]: > 100 µM
TGI [3]: > 100 µM
TGI [4]: > 100 µM
TGI [6]: 67.3 µM
TGI [7]: > 100 µM
TGI [9]: > 100 µM
TGI [10]: > 100 µM
TGI [11]: > 100 µM
TGI [12]: > 100 µM
TGI [13]: > 100 µM
TGI [14]: > 100 µM
TGI [16]: > 100 µM
TGI [17]: > 100 µM
TGI [18]: > 100 µM
TGI [19]: > 100 µM
TGI [20]: 58.1 µM
TGI [21]: > 100 µM
TGI [22]: > 100 µM
TGI [24]: > 100 µM
TGI [25]: > 100 µM
TGI [27]: > 100 µM
TGI [28]: > 100 µM
TGI [29]: > 100 µM
TGI [30]: > 100 µM
TGI [31]: > 100 µM
TGI [32]: > 100 µM
TGI [33]: > 100 µM
TGI [34]: > 100 µM
TGI [35]: 80.4 µM
TGI [36]: > 100 µM
TGI [37]: > 100 µM
TGI [38]: > 100 µM
TGI [39]: > 100 µM
TGI [41]: 57.3 µM
TGI [43]: > 100 µM
TGI [44]: > 100 µM
TGI [46]: > 100 µM
TGI [47]: 1.34 µM
TGI [48]: > 100 µM
TGI [49]: > 100 µM
TGI [50]: > 100 µM
TGI [51]: > 100 µM
TGI [52]: > 100 µM
TGI [54]: > 100 µM
TGI [55]: > 100 µM
TGI [56]: > 100 µM
TGI [57]: > 100 µM
TGI [59]: > 100 µM
TGI [58]: > 100 µM

CC(=O)O[C@H]1C(=O)N(c2cc3c4ccccc4ccc3c3ccccc23)[C@@H]1c1ccccc1
TGI [1]: > 100 µM
TGI [2]: 32.9 µM
TGI [3]: 8.27 µM
TGI [4]: 37.3 µM
TGI [5]: > 100 µM
TGI [7]: > 100 µM
TGI [8]: > 100 µM
TGI [9]: 53.5 µM
TGI [10]: 26.8 µM
TGI [11]: 8.95 µM
TGI [12]: 98.6 µM
TGI [13]: 48.2 µM
TGI [14]: 74.2 µM
TGI [15]: 7.2 µM
TGI [16]: 47.1 µM
TGI [17]: 28 µM
TGI [18]: 40.3 µM
TGI [19]: 6.98 µM
TGI [20]: 40.3 µM
TGI [21]: > 100 µM
TGI [22]: > 100 µM
TGI [24]: 6.77 µM
TGI [25]: > 100 µM
TGI [26]: > 100 µM
TGI [27]: 13.2 µM
TGI [28]: 5.68 µM
TGI [29]: 18.1 µM
TGI [30]: 9.4 µM
TGI [31]: 35.8 µM
TGI [32]: 45.7 µM
TGI [33]: 67.1 µM
TGI [34]: 54.1 µM
TGI [35]: 25.1 µM
TGI [36]: 26.7 µM
TGI [37]: > 100 µM
TGI [38]: 49.5 µM
TGI [39]: 27.1 µM
TGI [40]: 43.9 µM
TGI [41]: > 100 µM
TGI [43]: 89.6 µM
TGI [44]: 15.9 µM
TGI [45]: 35.5 µM
TGI [46]: 61.6 µM
TGI [47]: 14.4 µM
TGI [48]: 23.1 µM
TGI [49]: 29.5 µM
TGI [50]: 65.3 µM
TGI [51]: > 100 µM
TGI [52]: 33.1 µM
TGI [53]: 66.4 µM
TGI [54]: 32.1 µM
TGI [55]: 89.2 µM
TGI [56]: 4.86 µM
TGI [57]: 24 µM
TGI [59]: > 100 µM
